Results reported in DBAASP.
In brackets after ≈: the same amount, converted by molar mass.

Key:
Test in all cases: ≥ marks a high value that may be exact or a test limit, other limits are often not marked, values filed in µg/mL are converted to µM
[1] = tested on: Escherichia coli CCARM 1238
[2] = tested on: Aspergillus flavus KCTC 6905
[3] = tested on: Pseudomonas aeruginosa 4007
[4] = tested on: Bacillus subtilis KCTC 1918
[5] = tested on: Aspergillus parasiticus KCTC 6598
[6] = tested on: Aspergillus fumigatus KCTC 6145
[7] = tested on: Salmonella typhimurium CCARM 8009
[8] = tested on: Aspergillus awamori KCTC 6915
[9] = tested on: Proteus vulgaris KCTC 2433
[10] = tested on: Staphylococcus epidermidis KCTC 3096
[11] = tested on: Candida albicans KCTC 7270
[12] = tested on: Staphylococcus aureus CCARM 3089
[13] = tested on: Salmonella typhimurium KCTC 1926
[14] = tested on: Escherichia coli CCARM 1229
[15] = tested on: Listeria monocytogenes KCTC 3710
[16] = tested on: Listeria monocytogenes ATCC 19115
[17] = tested on: Staphylococcus aureus CCARM 3114
[18] = tested on: Bacillus subtilis KCTC 1998
[19] = tested on: Staphylococcus epidermidis ATCC 12228
[20] = tested on: Pseudomonas aeruginosa ATCC 15692
[21] = tested on: Pseudomonas aeruginosa 3547
[22] = tested on: Staphylococcus aureus PBEL
[23] = tested on: Salmonella typhimurium CCARM 8013
[24] = tested on: Trichosporon beigelii KCTC 7707
[25] = tested on: Pseudomonas aeruginosa KCTC 1637
[26] = tested on: Psychrobacter faecalis X29
[27] = tested on: Enterococcus faecium 091299
[28] = tested on: Enterococcus faecalis 981
Candida glabrata 090902 = tested on: Candida glabrata 090902
[29] = tested on: Enterobacter cloacae CGMCC 1.57
Nocardia asteroides = tested on: Nocardia asteroides
[30] = tested on: Staphylococcus aureus ATCC 25923
Aerococcus viridans = tested on: Aerococcus viridans
Salmonella typhimurium = tested on: Salmonella typhimurium
Vibrio penaeicida = tested on: Vibrio penaeicida
Botrytis cinerea = tested on: Botrytis cinerea
Micrococcus luteus = tested on: Micrococcus luteus
Vibrio alginolyticus = tested on: Vibrio alginolyticus
Vibrio harveyi = tested on: Vibrio harveyi
[31] = tested on: Pectobacterium carotovorum
Klebsiella pneumoniae = tested on: Klebsiella pneumoniae
Staphylococcus aureus = tested on: Staphylococcus aureus
Escherichia coli 363 = tested on: Escherichia coli 363
Vibrio anguillarum = tested on: Vibrio anguillarum
Enterobacter cloacae = tested on: Enterobacter cloacae
Fusarium oxysporum = tested on: Fusarium oxysporum
Penicillium crustosum = tested on: Penicillium crustosum
Bacillus megaterium = tested on: Bacillus megaterium
[32] = tested on: Staphylococcus epidermidis
[33] = tested on: Staphylococcus aureus A170
[34] = tested on: Candida albicans ATCC 37092
[35] = tested on: Escherichia coli ATCC 25922
[36] = tested on: Staphylococcus aureus ATCC 29213

`CC[C@H](C)[C@H](NC(=O)[C@H](CCCCN)NC(=O)[C@H](CCCCN)NC(=O)[C@H](C)NC(=O)[C@H](CC(C)C)NC(=O)[C@H](CCCCN)NC(=O)[C@H](CCCCN)NC(=O)[C@H](CC(C)C)NC(=O)[C@H](CCCN=C(N)N)NC(=O)[C@H](CCCCN)NC(=O)[C@H](C)N)C(=O)N[C@@H](Cc1c[nH]c2ccccc12)C(=O)N[C@@H](CCCCN)C(=O)N[C@@H](Cc1c[nH]c2ccccc12)C(=O)N[C@@H](CCCCN)C(N)=O` [AKRLKKLAKKIWKWK] was tested. Which MIC [1] did it give?
Its MIC is 2 µM (≈ 3.85 µg/mL).

What about the MIC [2] of the same compound?
Its MIC is 8 µM (≈ 15.4 µg/mL).

And the MIC [3]?
The MIC was 1 µM (≈ 1.92 µg/mL).

What about the MIC [4] of the same compound?
The MIC was 2 µM (≈ 3.85 µg/mL).

What about the MIC [5] of the same compound?
Its MIC is 8 µM (≈ 15.4 µg/mL).

What about the MIC [6] of the same compound?
The MIC was 4 µM (≈ 7.7 µg/mL).

And the MIC [7]?
Its MIC is 2 µM (≈ 3.85 µg/mL).

What about the MIC [8] of the same compound?
The MIC was 8 µM (≈ 15.4 µg/mL).

And the MIC [9]?
Its MIC is 2.83 µM (≈ 5.44 µg/mL).

What about the MIC [10] of the same compound?
Its MIC is 2.83 µM (≈ 5.44 µg/mL).

What about the MIC [11] of the same compound?
The MIC was 8 µM (≈ 15.4 µg/mL).

And the MIC [12]?
Its MIC is 2 µM (≈ 3.85 µg/mL).

And the MIC [13]?
The MIC was 1.41 µM (≈ 2.72 µg/mL).

What about the MIC [14] of the same compound?
The MIC was 1.41 µM (≈ 2.72 µg/mL).

What about the MIC [15] of the same compound?
Its MIC is 2 µM (≈ 3.85 µg/mL).

And the MIC [16]?
The MIC was 2 µM (≈ 3.85 µg/mL).

And the MIC [17]?
The MIC was 4 µM (≈ 7.7 µg/mL).

And the MIC [18]?
Its MIC is 2 µM (≈ 3.85 µg/mL).

And the MIC [19]?
Its MIC is 2.83 µM (≈ 5.44 µg/mL).

What about the MIC [20] of the same compound?
The MIC was 2 µM (≈ 3.85 µg/mL).

What about the MIC [21] of the same compound?
Its MIC is 2.83 µM (≈ 5.44 µg/mL).

What about the MIC [22] of the same compound?
The MIC was 1 µM (≈ 1.92 µg/mL).

And the MIC [23]?
Its MIC is 1 µM (≈ 1.92 µg/mL).

And the MIC [24]?
The MIC was 16 µM (≈ 30.8 µg/mL).

And the MIC [25]?
Its MIC is 2 µM (≈ 3.85 µg/mL).

Which results are given for `CC[C@H](C)[C@H](NC(=O)[C@H](C)NC(=O)[C@@H](NC(=O)[C@@H]1CCCN1C(=O)[C@H](CC(C)C)NC(=O)[C@@H](NC(=O)[C@H](Cc1cnc[nH]1)NC(=O)[C@H](C)NC(=O)[C@H](C)NC(=O)[C@@H](NC(=O)[C@H](CCCCN)NC(=O)[C@H](CC(C)C)NC(=O)[C@@H](NC(=O)[C@H](C)NC(=O)[C@@H]1CCCN1C(=O)[C@H](CC(C)C)NC(=O)[C@@H](N)Cc1ccccc1)C(C)C)C(C)C)[C@@H](C)CC)[C@@H](C)O)C(=O)N[C@H]1CSSC[C@@H](C(=O)O)NC(=O)[C@H](CCCN=C(N)N)NC(=O)[C@H](CCCN=C(N)N)NC(=O)[C@H](CO)NC(=O)[C@H]([C@@H](C)CC)NC(=O)[C@H](C)NC1=O` [FLPAVLKVAAHILPTAICAISRRC]?
MIC [26]: 25 µM (≈ 64.1 µg/mL); MIC [27]: ≥ 50 µM; MIC [28]: 3.1 µM (≈ 7.94 µg/mL); MIC (Candida glabrata 090902): 12.5 µM (≈ 32 µg/mL); MIC [29]: ≥ 100 µM; MIC (Nocardia asteroides): 3.1 µM (≈ 7.94 µg/mL); MIC [30]: 3.1 µM (≈ 7.94 µg/mL)

With `CSCC[C@H](NC(=O)[C@H](CCCN=C(N)N)NC(=O)CNC(=O)[C@H](CCCCN)NC(=O)[C@H](Cc1ccc(O)cc1)NC(=O)[C@H](Cc1ccc(O)cc1)NC(=O)[C@@H](NC(=O)[C@H](CCC(N)=O)NC(=O)[C@H](Cc1ccccc1)NC(=O)[C@H](CCCN=C(N)N)NC(=O)[C@H](CCCCN)NC(=O)[C@H](CC(C)C)NC(=O)[C@H](Cc1ccc(O)cc1)NC(=O)[C@@H]1CCCN1C(=O)[C@@H](N)CCCCN)C(C)C)C(=O)N[C@@H](Cc1c[nH]c2ccccc12)C(=O)N[C@@H](CS)C(=O)O` [KPYLKRFQVYYKGRMWC] as the compound, how does the MIC (Aerococcus viridans) read?
Its MIC is 6.25 µM (≈ 14.2 µg/mL).

And the MIC (Salmonella typhimurium)?
Its MIC is 25 µM (≈ 56.7 µg/mL).

What about the MIC (Vibrio penaeicida) of the same compound?
The MIC was no less than 100 µM.

What about the MIC (Botrytis cinerea) of the same compound?
The MIC was 12.5 µM (≈ 28.3 µg/mL).

What about the MIC (Micrococcus luteus) of the same compound?
Its MIC is 6.25 µM (≈ 14.2 µg/mL).

And the MIC (Vibrio alginolyticus)?
The MIC was 25 µM (≈ 56.7 µg/mL).

And the MIC (Vibrio harveyi)?
Its MIC is no less than 50 µM.

What about the MIC [31] of the same compound?
Its MIC is no less than 50 µM.

And the MIC (Klebsiella pneumoniae)?
The MIC was 25 µM (≈ 56.7 µg/mL).

And the MIC (Staphylococcus aureus)?
Its MIC is 50 µM (≈ 113 µg/mL).

And the MIC (Escherichia coli 363)?
Its MIC is 25 µM (≈ 56.7 µg/mL).

And the MIC (Vibrio anguillarum)?
Its MIC is no less than 100 µM.

What about the MIC (Enterobacter cloacae) of the same compound?
The MIC was 25 µM (≈ 56.7 µg/mL).

What about the MIC (Fusarium oxysporum) of the same compound?
Its MIC is 12.5 µM (≈ 28.3 µg/mL).

What about the MIC (Penicillium crustosum) of the same compound?
Its MIC is 25 µM (≈ 56.7 µg/mL).

And the MIC (Bacillus megaterium)?
Its MIC is 3.12 µM (≈ 7.07 µg/mL).

Which MIC [32] does the source give for `CC[C@H](C)[C@H](NC(=O)[C@@H](NC(=O)[C@@H](NC(=O)[C@@H]1CCCN1C(=O)[C@H](CC(C)C)NC(=O)[C@@H](N)CC(C)C)[C@@H](C)CC)C(C)C)C(=O)N[C@@H](CC(N)=O)C(=O)N[C@@H](CC(C)C)C(=O)N[C@@H](CC(C)C)C(=O)N[C@@H](CCCCN)C(=O)N[C@@H](CO)C(=O)N[C@@H](CC(C)C)C(=O)N[C@@H](CC(C)C)C(=O)O` [LLPIVINLLKSLL] here?
The MIC was 13.8 µM (≈ 20 µg/mL).

And the MIC [33]?
Its MIC is 6.9 µM (≈ 10 µg/mL).

Which results are given for `CC(C)C[C@H](NC(=O)[C@@H]1CCCN1C(=O)[C@H](CCCN=C(N)N)NC(=O)[C@@H]1CCCN1C(=O)[C@H](CCCN=C(N)N)NC(=O)[C@@H]1CCCN1)C(=O)N1CCC[C@H]1C(=O)N[C@@H](Cc1ccccc1)C(=O)N1CCC[C@H]1C(=O)N[C@@H](CCCN=C(N)N)C(=O)N1CCC[C@H]1C(=O)NCC(=O)O` [PRPRPLPFPRPG]?
MIC [34]: ≥ 500 µM; MIC [35]: > 500 µM; MIC [36]: > 500 µM
